Results reported in PubChem BioAssay (NCI).
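Where inhibition never reached the appropriate level, the endpoint shown equals the highest concentration tested. Otherwise, values were interpolated linearly from a five-concentration, 48-hour dose response in 96-well plates. GI50 is the concentration that inhibits growth by half. TGI is the concentration that stops growth completely.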

Tests used:
Assay in all cases: NCI tumour cell line growth inhibition, 48 h
EKVX NSCLC = system: EKVX NSCLC
A549 NSCLC = system: A549 NSCLC
786-0 renal = system: 786-0 renal
SF-295 CNS = system: SF-295 CNS
UACC-62 melanoma = system: UACC-62 melanoma
SN12C renal = system: SN12C renal
MOLT-4 leukemia = system: MOLT-4 leukemia
ACHN renal = system: ACHN renal
SK-MEL-2 melanoma = system: SK-MEL-2 melanoma
MDA-MB-435 = system: MDA-MB-435
K-562 leukemia = system: K-562 leukemia
MDA-MB-231 breast = system: MDA-MB-231 breast
RPMI-8226 leukemia = system: RPMI-8226 leukemia
HOP-92 NSCLC = system: HOP-92 NSCLC
CAKI-1 renal = system: CAKI-1 renal
U251 CNS = system: U251 CNS
SK-MEL-5 melanoma = system: SK-MEL-5 melanoma
RXF 393 renal = system: RXF 393 renal
M14 melanoma = system: M14 melanoma
HCT-15 colon = system: HCT-15 colon
OVCAR-8 ovarian = system: OVCAR-8 ovarian
MALME-3M melanoma = system: MALME-3M melanoma
UACC-257 melanoma = system: UACC-257 melanoma
TK-10 renal = system: TK-10 renal
HT29 colon = system: HT29 colon
DU-145 prostate = system: DU-145 prostate
SR leukemia = system: SR leukemia
NCI/ADR-RES ovarian = system: NCI/ADR-RES ovarian
SK-MEL-28 melanoma = system: SK-MEL-28 melanoma
HOP-62 NSCLC = system: HOP-62 NSCLC
KM12 colon = system: KM12 colon
COLO 205 colon = system: COLO 205 colon
NCI-H460 lung = system: NCI-H460 lung
SW-620 colon = system: SW-620 colon
PC-3 prostate = system: PC-3 prostate
OVCAR-5 ovarian = system: OVCAR-5 ovarian
OVCAR-3 ovarian = system: OVCAR-3 ovarian
SNB-19 CNS = system: SNB-19 CNS
OVCAR-4 ovarian = system: OVCAR-4 ovarian
NCI-H23 lung = system: NCI-H23 lung
T-47D breast = system: T-47D breast
SF-539 CNS = system: SF-539 CNS
HS 578T breast = system: HS 578T breast
HCT-116 colon = system: HCT-116 colon
SK-OV-3 ovarian = system: SK-OV-3 ovarian
BT-549 breast = system: BT-549 breast
UO-31 renal = system: UO-31 renal
A498 renal = system: A498 renal
CCRF-CEM leukemia = system: CCRF-CEM leukemia
MCF7 breast = system: MCF7 breast
SF-268 CNS = system: SF-268 CNS
NCI-H522 lung = system: NCI-H522 lung
LOX IMVI melanoma = system: LOX IMVI melanoma

## COc1cc2ncc3c(nc4sccn43)c2cc1OC
EKVX NSCLC
  GI50: 20.7 µM
  TGI: > 100 µM
A549 NSCLC
  GI50: 28.7 µM
  TGI: > 100 µM
786-0 renal
  GI50: 14.6 µM
  TGI: 40.2 µM
SF-295 CNS
  GI50: 18.3 µM
  TGI: 62.8 µM
UACC-62 melanoma
  GI50: 22.9 µM
  TGI: > 100 µM
SN12C renal
  GI50: 22.5 µM
  TGI: 89.3 µM
MOLT-4 leukemia
  GI50: 29.3 µM
  TGI: > 100 µM
ACHN renal
  GI50: 10.2 µM
  TGI: 26 µM
SK-MEL-2 melanoma
  GI50: 31.1 µM
  TGI: > 100 µM
MDA-MB-435
  GI50: 27.2 µM
  TGI: > 100 µM
K-562 leukemia
  GI50: 31.6 µM
  TGI: > 100 µM
MDA-MB-231 breast
  GI50: 24.2 µM
  TGI: 78.3 µM
RPMI-8226 leukemia
  GI50: 26.4 µM
  TGI: 89 µM
HOP-92 NSCLC
  GI50: 15.8 µM
  TGI: 39 µM
CAKI-1 renal
  GI50: 2.38 µM
  TGI: 21.2 µM
U251 CNS
  GI50: 16.5 µM
  TGI: 39.3 µM
SK-MEL-5 melanoma
  GI50: 48.4 µM
  TGI: > 100 µM
RXF 393 renal
  GI50: > 100 µM
  TGI: > 100 µM
M14 melanoma
  GI50: 16.4 µM
  TGI: 78.2 µM
HCT-15 colon
  GI50: 11.1 µM
  TGI: > 100 µM
OVCAR-8 ovarian
  GI50: 38.1 µM
  TGI: > 100 µM
MALME-3M melanoma
  GI50: 5.86 µM
  TGI: 32.6 µM
UACC-257 melanoma
  GI50: 43.8 µM
  TGI: > 100 µM
TK-10 renal
  GI50: 11.1 µM
  TGI: 29.5 µM
HT29 colon
  GI50: 69.7 µM
  TGI: > 100 µM
DU-145 prostate
  GI50: 28 µM
  TGI: > 100 µM
SR leukemia
  GI50: 12.4 µM
  TGI: 41.7 µM
NCI/ADR-RES ovarian
  GI50: 93.3 µM
  TGI: > 100 µM
SK-MEL-28 melanoma
  GI50: 28.9 µM
  TGI: 95 µM
HOP-62 NSCLC
  GI50: 18.7 µM
  TGI: 51.4 µM
KM12 colon
  GI50: 8.38 µM
  TGI: > 100 µM
COLO 205 colon
  GI50: 38.2 µM
  TGI: > 100 µM
NCI-H460 lung
  GI50: 13.6 µM
  TGI: > 100 µM
SW-620 colon
  GI50: 41.9 µM
  TGI: > 100 µM
PC-3 prostate
  GI50: 47.9 µM
  TGI: > 100 µM
OVCAR-5 ovarian
  GI50: 26.8 µM
  TGI: 60.5 µM
OVCAR-3 ovarian
  GI50: 13.1 µM
  TGI: 42 µM
SNB-19 CNS
  GI50: 47.2 µM
  TGI: > 100 µM
OVCAR-4 ovarian
  GI50: 32 µM
  TGI: 70.4 µM
NCI-H23 lung
  GI50: 80.4 µM
  TGI: > 100 µM
T-47D breast
  GI50: 29.2 µM
  TGI: > 100 µM
SF-539 CNS
  GI50: 15.6 µM
  TGI: 55.2 µM
HS 578T breast
  GI50: 22.1 µM
  TGI: > 100 µM
HCT-116 colon
  GI50: 13.7 µM
  TGI: 78.2 µM
SK-OV-3 ovarian
  GI50: 30.1 µM
  TGI: > 100 µM
BT-549 breast
  GI50: 37.1 µM
  TGI: > 100 µM
UO-31 renal
  GI50: 33.6 µM
  TGI: > 100 µM
A498 renal
  GI50: 8.01 µM
  TGI: > 100 µM
CCRF-CEM leukemia
  GI50: 46.4 µM
  TGI: > 100 µM
MCF7 breast
  GI50: 36.8 µM
  TGI: > 100 µM
SF-268 CNS
  GI50: > 100 µM
  TGI: > 100 µM
NCI-H522 lung
  GI50: 86.1 µM
  TGI: > 100 µM
LOX IMVI melanoma
  GI50: 15.6 µM
  TGI: > 100 µM
